Measured values from patent EP1574201B1, “Composition comprising benzyloxyethanol as preservative” (KAO CORPORATION, priority 2004, dated 2005).

Legend:
[1] = system: Cladosporium cladosporoides IFO 6348; experiment: MIC by agar plate method; format: cell-based; settings: GP agar medium
Method: (§1) The minimum inhibitory concentration (MIC) of benzyloxyethanol against bacteria and fungi was determined by means of the agar plate method. There were employed the following microbial strains: Staphylococcus aureus IFO 13276, Escherichia coli IFO 3972, Pseudomonas aeruginosa IFO 13275, and Alcaligenes faecalis IFO 13111, and the following fungal strains: Penicillium citrinum IFO 6352 , Cladosporium cladosporoides IFO 6348 and Aspergillus niger IFO 6341. The media used in the test […] agar medium (product of Wako Pure Chemical Industries, Ltd.) for the bacteria, and GP agar medium (product of Wako Pure Chemical Industries, Ltd.) for the fungi, to which various concentration of benzyloxyethanol was added.

[2] = system: Staphylococcus aureus IFO 13276; experiment: MIC by agar plate method; format: cell-based; settings: SCD agar medium
Method: as §1

[3] = system: Aspergillus niger IFO 6341; experiment: MIC by agar plate method; format: cell-based; settings: GP agar medium
Method: as §1

[4] = system: Escherichia coli IFO 3972; experiment: MIC by agar plate method; format: cell-based; settings: SCD agar medium
Method: as §1

[5] = system: Alcaligenes faecalis IFO 13111; experiment: MIC by agar plate method; format: cell-based; settings: SCD agar medium
Method: as §1

[6] = system: Penicillium citrinum IFO 6352; experiment: MIC by agar plate method; format: cell-based; settings: GP agar medium
Method: as §1

[7] = system: Pseudomonas aeruginosa IFO 13275; experiment: MIC by agar plate method; format: cell-based; settings: SCD agar medium
Method: as §1

[8] = system: Staphylococcus aureus IFO 13276, Escherichia coli IFO 3972, and Pseudomonas aeruginosa IFO 13275; experiment: Preservative efficacy test (reduction in count of viable bacteria); format: cell-based; settings: BOE and methyl paraben in combination versus each alone
Method: Preservative efficacy test was performed at 30°C by use of the bacteria written below and a sample (50 g) having a composition shown in the below-described Table 2, and the preservative efficacy was evaluated on the reduction in count of viable bacteria. The following test microorganisms are challenged: Staphylococcus aureus IFO 13276, Escherichia coli IFO 3972, and Pseudomonas aeruginosa IFO 13275.

[9] = guinea pig, in vivo
Method: Guinea pig maximization test was performed. Specifically, groups of guinea pigs, each group consisting of 10 guinea pigs, were employed, and each animal was given interedermal injection of.0.3(W/V)% benzyloxyethanol and 30(W/V)% benzyloxyethanol was applied occlusive patch. Subsequently, challenge was performed at a concentration of benzyloxyethanol at which no irritation occurs.

OCCOCc1ccccc1 [benzyloxyethanol]
MIC (%) [1]: 0.2% | MIC (%) [2]: 1.4% | MIC (%) [3]: 0.8% | MIC (%) [4]: 0.8% | MIC (%) [5]: 0.8% | MIC (%) [6]: 0.8% | MIC (%) [7]: 1.0% | available amounts for the required reduction were reduced by [8]: 40% | positive rate [9]: 0%

COC(=O)c1ccc(O)cc1 [methyl paraben, reference compound]
available amounts for the required reduction were reduced by [8]: 75%
